Patent publication US20090326008A1, “NF-kappa B Inhibitor” (priority 2006, published 2009)

Experiments:
Type in all cases: cell-based, human
[1] = test system: NF-κB; assay: NF-kappaB reporter assay (pNF-kappaB-SEAP) in IL-1β-stimulated MKN-45 cells; settings: IL-1β 2 ng/mL for 6 hours, DMSO (0.05%) control = 1.00, triplicate
Method: pNF-kappaB-SEAP was obtained from Clonetech Laboratories Inc.
Cryopreserved MKN-45 cells (product of JCRB (Japanese Collection of Research Bioresources)) were thawed and cultured in a standard medium in an incubator (37° C., 5% CO2). Every three to five days, the cells were recovered by treatment with Trypsin-EDTA, then adequately diluted and subcultured. MKN-45 cells subcultured two or more times with a survival rate of 95% or more were used in each experiment.
The subcultured MKN-45 cells were harvested using Trypsin-EDTA solution, and the number of viable cells was counted. The cells were suspended in a standard medium to yield a 1.5×10^5 cells/mL suspension. A 24-well plate was seeded with 500 μL/well of the cell suspension, and the cells were cultured in an incubator (37° C., 5% CO2).
The day after seeding, transfection was performed according to the following protocol.
(4.1) Preparation of Plasmid Solution 4 μL of 0.1 μg/μL pNFkappaB-SEAP was placed into each well and diluted with 50 μL of OPTI-MEM I (product of Invitrogen Japan K.K.) by mixing by inversion.
1 μL of Lipofectamine 2000 reagent (product of Invitrogen) was placed into each well and diluted with 50 μL of OPTI-MEM I (product of Life Technologies Inc.) by mixing by inversion. The mixture was allowed to stand at room temperature for 5 to 10 minutes to prepare a Lipofectamine dilution.
The plasmid solution and the Lipofectamine dilution were mixed by inversion and allowed to stand at room temperature for 20 to 30 minutes to prepare a transfection mixture.
The culture medium was removed from the 24-well plate by suction. While care was taken not to dry the subcultured MKN-45 cells, the inner surface of the wells was washed with 1 mL/well of PBS. After the medium was replaced with 500 μL/well of OPTI-MEM I (product of Life Technologies Inc.), 100 μL/well of the transfection mixture was added, and the cells were cultured in a incubator (37° C., 5% CO2). After about 5 hours of incubation, the medium was replaced with a standard medium, and the cells were further cultured in a CO2 incubator (37° C., 5% CO2) until the following day.
On the following morning, the culture medium supernatant was removed by suction and replaced with 1 mL/well of the test compound solution or control solution diluted with a standard medium. The cells were cultured in a CO2 incubator (37° C., 5% CO2) for 1 hour. Each experiment was performed in triplicate.
200 ng/mL IL-1β was added in an amount of 10 μL/well (final concentration: 2 ng/mL), and the cells were cultured in a CO2 incubator (37° C., 5% CO2) for 6 hours.
A reporter assay was performed using Reporter Assay Kit-SEAP (product of Toyobo Co.) according to the manufacturer's protocol.
More specifically, 500 μL of the culture broth was transferred into a tube and centrifuged at 15,000 rpm for 5 minutes at 4° C. The supernatant was transferred into a 96-well white plate. The positive control included in the Reporter Assay Kit-SEAP, and a standard medium as a blank control were each added in an amount of 20 μL/well to the 96-well white plate. Further, an inhibitor for inhibiting the AP activity of the MKN-45 cells was added in an amount of 20 μL/well. After sealing the plate, the contents were mixed well. The plate was placed into a CO2 incubator (37° C., 5% CO2) and allowed to stand for 30 minutes. Subsequently, the plate was allowed to stand on ice for 1 minute, followed by addition of 160 μL/well of Lumi-Phos Plus (a chemiluminescent substrate, product of Lumigen Inc.). The plate was sealed again and placed in a light-shielded state into a CO2 incubator (37° C., 5% CO2). After the plate was allowed to stand for 15 to 30 minutes, luminescence was measured for about 5 to about 10 seconds using a luminometer.
The results of the reporter assay were expressed as Percent Control (or Inhibition), calculated according to the following formulae. The luminescence of each sample was calculated by subtracting the average of blank samples.

[2] = test system: COX2; assay: Relative COX2 mRNA expression in IL-1β-stimulated MKN-45 cells (real-time PCR); settings: IL-1β-stimulated DMSO-treated cells = 100%, ACTB reference
Method: (§1) RNA was extracted from the cells used in Example 2 according to the manufacturer's protocol for ABI Prism 6100 Nucleic Acid PrepStation (a nucleic acid isolation system, product of Applied Biosystems). More specifically, after removal of the culture supernatant and washing with 1 mL of PBS, 250 μL of Nucleic Acid Purification Lysis Solution (Part No. 4305895, Applied Biosystems) was added, and then agitated using a shaker for 2 to 3 minutes. The Lysis Solution containing the cell lysate was collected, and the total amount was transferred to the wells of RNA Purification Tray (Part No. 4305673, Applied Biosystems), which had been pre-wet with 40 μL of Nucleic Acid Purification Wash Solution I (Part No. 4305891, Applied Biosystems) beforehand. Aspiration (20% pressure) was performed for 2 minutes to adsorb the sample onto the RNA Purification Tray, followed by sequentially adding and aspirating (20% pressure, 2 min.) 500 μL of Wash Solution I, Nucleic Acid Purification (Part No. 4305891, Applied Biosystems), 400 μL of Wash Solution II, Nucleic Acid Purification (Part No. 4305890, product of Applied Biosystems), 400 μL of the Wash Solution II, and 300 μL of the Wash Solution II in that order. Aspiration (90% pressure) was performed for 5 minutes to remove the water content from the RNA Purification Trays. After addition of 150 μL of Elution Solution, Nucleic Acid Purification (Part No. 4305893, product of Applied Biosystems), aspiration (20% pressure) was performed for 2 minutes, while collecting the outflow. This was used as collected RNA solution.
(§2) Absorbance of the collected RNA solution at 260 nm was measured using a microplate spectrophotometer (“SpectraMax Plus”, product of Molecular Devices) with an analysis software (“SOFTmaxPRO ver.3.1.2”, product of Molecular Devices), and the RNA concentration was determined from the absorbance. Likewise, absorbance at 280 nm was measured and the purity of the RNA was determined using the analysis software.
(§3) cDNA was synthesized according to the manufacturer's protocol for TaqMan® Reverse Transcription Reagents (Part No. N808-0234, product of Applied Biosystems). More specifically, about 0.5 μg of RNA, 2.5 μL of 10×RT buffer, 5.5 μL of MgCl2 solution, 5 μL of dNTP mixture, 1.25 μL of random hexamer (primers), 0.5 μL of RNase inhibitor, and 0.63 μL of MultiScribe Reverse Transcriptase (product of Applied Biosystems) were added to each collected RNA sample in a tube, and DEPC-treated water was added to make a total volume of 25 μL and stirred. A reaction consisting of 25° C. for 10 minutes, 48° C. for 30 minutes, and 95° C. for 5 minutes was performed using a PCR thermal cycler (“TaKaRa PCR Thermal Cycler Dice”, product of Takara Bio Inc.) to prepare a cDNA solution.
(§4) PCR was performed according to the manufacturer's protocol for TaqMan® Gene Expression Assays (product of Applied Biosystems). More specifically, 5 μL of TaqMan® Fast Universal PCR Master Mix (product of Applied Biosystems), 0.5 μL of TaqMan® Gene Expression Assays for the target gene (gene-specific probe and primer sets, product of Applied Biosystems), and 4.5 μL of the above-obtained cDNA solution were added to each sample and stirred. A PCR reaction consisting of heating at 95° C. for 20 seconds, followed by 40 cycles consisting of heating at 95° C. for 3 seconds and annealing and extension at 60° C. for 30 seconds was performed using a real-time PCR device (“Applied Biosystems 7500 Real-Time PCR System”) with SDS v1.4 Software (product of Applied Biosystems). Threshold cycle (Ct) values were calculated using the software.
(§5) The Assay IDs of the TaqMan® Gene Expression Assays for the target genes used are as follows:
(§6) The expression level of each gene was determined according to the following formula using the level of ACTB as a reference standard.
(§7) (Relative mRNA expression level)=2̂−{(Ct value of the target gene)−(Ct value of ACTB)} […]

[3] = test system: TNFα; assay: Relative TNFα mRNA expression in IL-1β-stimulated MKN-45 cells (real-time PCR); settings: IL-1β-stimulated DMSO-treated cells = 100%, ACTB reference
Method: as §1, §2, §3, §4, §5, §6, §7

[4] = test system: IL-8; assay: Relative IL-8 mRNA expression in IL-1β-stimulated MKN-45 cells (real-time PCR); settings: IL-1β-stimulated DMSO-treated cells = 100%, ACTB reference
Method: as §1, §2, §3, §4, §5, §6, §7

SMILES | NF-kappaB reporter (SEAP luminescence) IL-1b(+) mean, relative to control [1] | COX2 relative mRNA expression level, Mean [2] | TNFa relative mRNA expression level, Mean [3] | IL-8 relative mRNA expression level, Mean [4]
COc1ccc(CC2SC(=O)NC2=O)c2c1N(CCCC(=O)Nc1ccccc1)C(=O)CC2 (centres unmarked) [Test Compound 608] | 0.71 | 42.4% | 30.8% | 36.5%
COc1ccc(CC2SC(=O)NC2=O)c2c1N(CC(=O)Nc1ccc(C(F)(F)F)cc1)C(=O)CC2 (centres unmarked) [Test Compound 612] | 0.67 | 33.4% | 31.1% | 41.8%
CCNC(=O)CCCN1C(=O)CCc2c(CC3SC(=O)NC3=O)ccc(OC)c21 (centres unmarked) [Test Compound 613] | 0.86 | 112.4% | 94.0% | 91.5%
Cc1ccc(CC(=O)N2CCC(CCN3C(=O)CCc4c(CC5SC(=O)NC5=O)cccc43)CC2)cc1 (centres unmarked) [Test Compound 616] | 0.57 | 26.3% | 31.4% | 35.3%
COc1ccc(CC2SC(=S)NC2=O)c2c1N(Cc1ccc(C(C)(C)C)cc1)C(=O)CC2 (centres unmarked) [Test Compound 914] | 0.53 | 32.9% | 66.7% | 61.9%
COc1ccc(CC2SC(=S)NC2=O)c2c1N(Cc1ccc3ccccc3c1)C(=O)CC2 (centres unmarked) [Test Compound 971] | 0.56 | 30.8% | 63.4% | 55.9%
COc1ccc(CC2SC(=S)NC2=O)c2c1N(CC1CC1)C(=O)CC2 (centres unmarked) [Test Compound 980] | 0.63 | 53.8% | 98.0% | 79.4%
COc1ccc(CC2SC(=S)NC2=O)c2c1N(CCOc1ccccc1)C(=O)CC2 (centres unmarked) [Test Compound 981] | 0.68 | 37.8% | 75.7% | 70.4%
Cc1ccc(CN2C(=O)CCc3c(CC4SC(=S)NC4=O)cccc32)cc1 (centres unmarked) [Test Compound 993] | 0.59 | 27.6% | 46.8% | 45.6%
O=C1NC(=S)SC1Cc1ccc2c(c1)CCC(=O)N2Cc1ccc(-c2ccccc2)cc1 (centres unmarked) [Test Compound 995] | 0.66 | 28.1% | 29.3% | 38.3%
O=C1NC(=S)SC1Cc1cccc2c1CCC(=O)N2Cc1ccc2ccccc2c1 (centres unmarked) [Test Compound 996] | 0.43 | 31.3% | 41.3% | 50.1%
